ChEMBL document CHEMBL1139768, “The discovery of potent, selective, and orally bioavailable hNK1 antagonists derived from pyrrolidine” (Bioorg Med Chem Lett, 2007)

What was measured:
Substance-P receptor [1] = target: T1, Substance-P receptor (Homo sapiens, UniProt P25103); assay: Displacement of [125I]-SP from human NK1 receptor expressed in CHO cells at 100 nM
Substance-P receptor [2] = target: T1, Substance-P receptor; assay: Displacement of [125I]-SP from human NK1 receptor expressed in CHO cells
Gerbillinae [3] = assay: Inhibition of GR-73632-induced foot tapping in gerbils at 3 mg/kg, iv after 24 hrs; type: functional; conditions: for inhibition in vivo at 3 mg/kg: Gerbillinae, iv, 24 h
Gerbillinae [4] = assay: Inhibition of GR-73632-induced foot tapping in iv dosed gerbils; type: functional; conditions: for ED50: Gerbillinae, iv, read-out: ID50 (the source's name)
Gerbillinae [5] = assay: Inhibition of GR-73632-induced foot tapping in iv dosed gerbils after 24 hrs; type: functional; conditions: for ED50: Gerbillinae, iv, 24 h, read-out: ID50 (the source's name)
Gerbillinae [6] = assay: Inhibition of GR-73632-induced foot tapping in gerbils at 6 mg/kg, iv after 24 hrs; type: functional
Gerbillinae [7] = assay: Inhibition of GR-73632-induced foot tapping in gerbils at 1 mg/kg, iv; type: functional
Gerbillinae [8] = assay: Inhibition of GR-73632-induced foot tapping in gerbils at 3 mg/kg, iv; type: functional
Gerbillinae [9] = assay: Inhibition of GR-73632-induced foot tapping in gerbils at 2 mg/kg, iv; type: functional

T1 sequence (P25103 whole entry): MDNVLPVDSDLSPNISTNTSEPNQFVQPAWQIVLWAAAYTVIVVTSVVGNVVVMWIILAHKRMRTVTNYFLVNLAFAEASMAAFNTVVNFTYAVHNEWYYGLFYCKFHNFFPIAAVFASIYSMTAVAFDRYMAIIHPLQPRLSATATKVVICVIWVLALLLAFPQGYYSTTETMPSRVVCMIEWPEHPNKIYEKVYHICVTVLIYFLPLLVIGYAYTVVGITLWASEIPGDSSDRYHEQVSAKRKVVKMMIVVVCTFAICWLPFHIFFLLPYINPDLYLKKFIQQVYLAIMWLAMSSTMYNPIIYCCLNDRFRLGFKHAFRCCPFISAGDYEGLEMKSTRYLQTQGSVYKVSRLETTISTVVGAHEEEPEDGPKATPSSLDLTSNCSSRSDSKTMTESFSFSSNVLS

SMILES	IC50 (Substance-P receptor [2]) [nM]	inhibition in vivo at 3 mg/kg (Gerbillinae [3]) [%]	inhibition in vivo at 6 mg/kg (Gerbillinae [6]) [%]	ED50 (Gerbillinae [5]) [mg/kg]	further results
CC(=O)N1C[C@@H](O[C@@H](C)c2cc(C(F)(F)F)cc(C(F)(F)F)c2)[C@H](c2ccccc2)C1	–	–	–	–	inhibition (Substance-P receptor [1]): 18%
CC1CC(=O)C=C1N1C[C@@H](O[C@H](C)c2cc(C(F)(F)F)cc(C(F)(F)F)c2)[C@H](c2ccc(F)cc2)C1 (mixture of isomers)	0.11	79	–	–	–
C[C@@H](O[C@@H]1CN(C2=CC(=O)C(O)C2)C[C@H]1c1ccc(F)cc1)c1cc(C(F)(F)F)cc(C(F)(F)F)c1 (stereo in doubt)	0.3	95	–	–	ID50 (Gerbillinae [4]): 1.1 mg/kg; ID50 (Gerbillinae [5]): 0.5 mg/kg
C[C@@H](O[C@@H]1CN(C2=CC(=O)C(O)C2)C[C@H]1c1ccc(F)cc1)c1cc(C(F)(F)F)cc(C(F)(F)F)c1 (single isomer, unassigned; diastereomer A)	0.22	–	–	0.7	inhibition in vivo at 3 mg/kg (Gerbillinae [8]): 100%; ID50 (Gerbillinae [4]): 0.5 mg/kg; Inhibition (Gerbillinae [3]; 3 mg/kg): 100%
CC(=O)N1CCN(C(=O)N2C[C@@H](O[C@H](C)c3cc(C(F)(F)F)cc(C(F)(F)F)c3)[C@H](c3ccc(F)cc3)C2)CC1	0.3	57	–	–	–
CC(=O)N1C[C@@H](O[C@H](C)c2cc(C(F)(F)F)cc(C(F)(F)F)c2)[C@H](c2ccccc2)C1	0.09	–	98	3.2	ED50 (Gerbillinae [4]): 0.6 mg/kg
C[C@@H](O[C@@H]1CN(C(=O)[C@@H]2CCC(=O)N2C)C[C@H]1c1ccc(F)cc1)c1cc(C(F)(F)F)cc(C(F)(F)F)c1	0.12	100	–	1.2	ED50 (Gerbillinae [4]): 0.6 mg/kg
CC1=C(N2C[C@@H](O[C@H](C)c3cc(C(F)(F)F)cc(C(F)(F)F)c3)[C@H](c3ccc(F)cc3)C2)CCC1=O	0.13	67	–	–	–
C[C@@H](O[C@@H]1CN(C(=O)N2CCn3c(nnc3C(F)(F)F)C2)C[C@H]1c1ccc(F)cc1)c1cc(C(F)(F)F)cc(C(F)(F)F)c1	0.47	66	–	–	–

The next lines start with results.

IC50 (Substance-P receptor [2]) [nM]	SMILES	inhibition in vivo at 3 mg/kg (Gerbillinae [3]) [%]	inhibition in vivo at 6 mg/kg (Gerbillinae [6]) [%]	ED50 (Gerbillinae [5]) [mg/kg]	further results
0.38	C[C@@H](O[C@@H]1CN(C(=O)N(C)C)C[C@H]1c1ccc(F)cc1)c1cc(C(F)(F)F)cc(C(F)(F)F)c1	–	–	–	–
0.09	CCC(=O)N1C[C@@H](O[C@H](C)c2cc(C(F)(F)F)cc(C(F)(F)F)c2)[C@H](c2ccc(F)cc2)C1	–	0	–	–
0.06	CC(C)NC(=O)N1C[C@@H](O[C@H](C)c2cc(C(F)(F)F)cc(C(F)(F)F)c2)[C@H](c2ccc(F)cc2)C1	–	86	0.8	inhibition in vivo at 1 mg/kg (Gerbillinae [7]): 64%
0.58	C[C@@H](O[C@@H]1CN(C(=O)NCc2cnn[nH]2)C[C@H]1c1ccc(F)cc1)c1cc(C(F)(F)F)cc(C(F)(F)F)c1	24	–	–	–
0.34	C[C@@H](O[C@@H]1CN(C(=O)[C@@H]2COC(=O)N2)C[C@H]1c1ccc(F)cc1)c1cc(C(F)(F)F)cc(C(F)(F)F)c1	13	–	–	–
0.1	CCNC(=O)N1C[C@@H](O[C@H](C)c2cc(C(F)(F)F)cc(C(F)(F)F)c2)[C@H](c2ccc(F)cc2)C1	–	93	1	inhibition in vivo at 1 mg/kg (Gerbillinae [7]): 61%
0.11	CNC(=O)N1C[C@@H](O[C@H](C)c2cc(C(F)(F)F)cc(C(F)(F)F)c2)[C@H](c2ccc(F)cc2)C1	–	77	3	ED50 (Gerbillinae [4]): 1 mg/kg; inhibition in vivo at 2 mg/kg (Gerbillinae [9]): 100%
